{"source": "ChEMBL document CHEMBL5236661", "about": "“A new selective inhibitor for IMP-1 metallo-β-lactamase, 3Z,5E-octa-3,5-diene-1,3,4-tricarboxylic acid-3,4-anhydride” (Bioorg Med Chem, 2023)", "key": {"[1]": {"tested_on": "Pseudomonas aeruginosa", "test": "Antibacterial activity against Pseudomonas aeruginosa KB367 expressing IMP-1 assessed as inhibition of bacterial growth at 10 ug in presence of meropenem incubated overnight by paper disk method", "format": "functional", "conditions": "read-out: IZ"}, "[2]": {"tested_on": "Pseudomonas aeruginosa", "test": "Antibacterial activity against Pseudomonas aeruginosa KB367 expressing IMP-1 assessed as inhibition of bacterial growth at 30 ug in absence of meropenem incubated overnight by paper disk method", "format": "functional, organism-based", "conditions": "dose 30.0 µg"}, "[3]": {"tested_on": "Pseudomonas aeruginosa", "test": "Antibacterial activity against Pseudomonas aeruginosa KB367 expressing IMP-1 assessed as inhibition of bacterial growth at 0.3 ug in presence of meropenem incubated overnight by paper disk method", "format": "functional, organism-based", "conditions": "dose 0.3 µg"}, "[4]": {"tested_on": "Pseudomonas aeruginosa", "test": "Antibacterial activity against Pseudomonas aeruginosa KB367 expressing IMP-1 assessed as inhibition of bacterial growth at 30 ug in presence of meropenem incubated overnight by paper disk method", "format": "functional", "conditions": "read-out: IZ"}, "[5]": {"tested_on": "Escherichia coli", "test": "Antibacterial activity against Escherichia coli KB366 expressing IMP-1 assessed as inhibition of bacterial growth at 30 ug in absence of meropenem incubated overnight by paper disk method", "format": "functional, organism-based", "conditions": "dose 30.0 µg"}, "[6]": {"tested_on": "Escherichia coli", "test": "Antibacterial activity against Escherichia coli KB366 expressing IMP-1 assessed as inhibition of bacterial growth at 100 ug in absence of meropenem incubated overnight by paper disk method", "format": "functional, organism-based", "conditions": "dose 100.0 µg"}, "[7]": {"tested_on": "Escherichia coli", "test": "Antibacterial activity against Escherichia coli KB366 expressing IMP-1 assessed as inhibition of bacterial growth at 0.3 ug in absence of meropenem incubated overnight by paper disk method", "format": "functional, organism-based", "conditions": "dose 0.3 µg"}, "[8]": {"tested_on": "Escherichia coli", "test": "Antibacterial activity against Escherichia coli KB366 expressing IMP-1 assessed as inhibition of bacterial growth at 0.01 ug in absence of meropenem incubated overnight by paper disk method", "format": "functional, organism-based", "conditions": "dose 0.01 µg"}, "[9]": {"tested_on": "Escherichia coli", "test": "Antibacterial activity against Escherichia coli KB366 expressing IMP-1 assessed as inhibition of bacterial growth at 1 ug in presence of meropenem incubated overnight by paper disk method", "format": "functional", "conditions": "read-out: IZ"}, "[10]": {"tested_on": "Pseudomonas aeruginosa", "test": "Antibacterial activity against Pseudomonas aeruginosa KB367 expressing IMP-1 assessed as inhibition of bacterial growth at 10 ug in absence of meropenem incubated overnight by paper disk method", "format": "functional, organism-based", "conditions": "dose 10.0 µg"}, "[11]": {"tested_on": "Pseudomonas aeruginosa", "test": "Antibacterial activity against Pseudomonas aeruginosa KB367 expressing IMP-1 assessed as inhibition of bacterial growth at 100 ug in presence of meropenem incubated overnight by paper disk method", "format": "functional", "conditions": "read-out: IZ"}, "[12]": {"tested_on": "Pseudomonas aeruginosa", "test": "Antibacterial activity against Pseudomonas aeruginosa KB367 expressing IMP-1 assessed as inhibition of bacterial growth at 1 ug in absence of meropenem incubated overnight by paper disk method", "format": "functional, organism-based", "conditions": "dose 1.0 µg"}, "[13]": {"tested_on": "Escherichia coli", "test": "Antibacterial activity against Escherichia coli KB366 expressing IMP-1 assessed as inhibition of bacterial growth at 0.1 ug in presence of meropenem incubated overnight by paper disk method", "format": "functional", "conditions": "read-out: IZ"}, "[14]": {"tested_on": "Escherichia coli", "test": "Antibacterial activity against Escherichia coli KB366 expressing IMP-1 assessed as inhibition of bacterial growth at 1 ug in absence of meropenem incubated overnight by paper disk method", "format": "functional, organism-based", "conditions": "dose 1.0 µg"}, "[15]": {"tested_on": "Pseudomonas aeruginosa", "test": "Antibacterial activity against Pseudomonas aeruginosa KB367 expressing IMP-1 assessed as inhibition of bacterial growth at 0.01 ug in presence of meropenem incubated overnight by paper disk method", "format": "functional, organism-based", "conditions": "dose 0.01 µg"}, "[16]": {"tested_on": "Pseudomonas aeruginosa", "test": "Antibacterial activity against Pseudomonas aeruginosa KB367 expressing IMP-1 assessed as inhibition of bacterial growth at 0.1 ug in presence of meropenem incubated overnight by paper disk method", "format": "functional, organism-based", "conditions": "dose 0.1 µg"}, "[17]": {"tested_on": "Escherichia coli", "test": "Antibacterial activity against Escherichia coli KB366 expressing IMP-1 assessed as inhibition of bacterial growth at 3 ug in presence of meropenem incubated overnight by paper disk method", "format": "functional", "conditions": "read-out: IZ"}, "[18]": {"tested_on": "Pseudomonas aeruginosa", "test": "Antibacterial activity against Pseudomonas aeruginosa KB367 expressing IMP-1 assessed as inhibition of bacterial growth at 3 ug in presence of meropenem incubated overnight by paper disk method", "format": "functional", "conditions": "read-out: IZ"}, "[19]": {"tested_on": "Escherichia coli", "test": "Antibacterial activity against Escherichia coli KB366 expressing IMP-1 assessed as inhibition of bacterial growth at 10 ug in presence of meropenem incubated overnight by paper disk method", "format": "functional", "conditions": "read-out: IZ"}, "[20]": {"tested_on": "Pseudomonas aeruginosa", "test": "Antibacterial activity against Pseudomonas aeruginosa KB367 expressing IMP-1 assessed as inhibition of bacterial growth at 0.3 ug in absence of meropenem incubated overnight by paper disk method", "format": "functional, organism-based", "conditions": "dose 0.3 µg"}, "[21]": {"tested_on": "Escherichia coli", "test": "Antibacterial activity against Escherichia coli KB366 expressing IMP-1 assessed as inhibition of bacterial growth at 0.03 ug in presence of meropenem incubated overnight by paper disk method", "format": "functional", "conditions": "read-out: IZ"}, "[22]": {"tested_on": "Pseudomonas aeruginosa", "test": "Antibacterial activity against Pseudomonas aeruginosa KB367 expressing IMP-1 assessed as inhibition of bacterial growth at 0.03 ug in presence of meropenem incubated overnight by paper disk method", "format": "functional, organism-based", "conditions": "dose 0.03 µg"}, "[23]": {"tested_on": "Escherichia coli", "test": "Antibacterial activity against Escherichia coli KB366 expressing IMP-1 assessed as inhibition of bacterial growth at 3 ug in absence of meropenem incubated overnight by paper disk method", "format": "functional, organism-based", "conditions": "dose 3.0 µg"}, "[24]": {"tested_on": "Escherichia coli", "test": "Antibacterial activity against Escherichia coli KB366 expressing IMP-1 assessed as inhibition of bacterial growth at 10 ug in absence of meropenem incubated overnight by paper disk method", "format": "functional, organism-based", "conditions": "dose 10.0 µg"}, "[25]": {"tested_on": "Pseudomonas aeruginosa", "test": "Antibacterial activity against Pseudomonas aeruginosa KB367 expressing IMP-1 assessed as inhibition of bacterial growth at 0.1 ug in absence of meropenem incubated overnight by paper disk method", "format": "functional, organism-based", "conditions": "dose 0.1 µg"}, "[26]": {"tested_on": "Escherichia coli", "test": "Antibacterial activity against Escherichia coli KB366 expressing IMP-1 assessed as inhibition of bacterial growth at 0.1 ug in absence of meropenem incubated overnight by paper disk method", "format": "functional, organism-based", "conditions": "dose 0.1 µg"}, "[27]": {"test": "Inhibition of bacterial Metallo-beta-lactamase IMP-1 using nitrocefin as substrate pre-incubated for 15 mins followed by substrate addition by microplate reader", "design": "species or system Bacteria"}, "[28]": {"tested_on": "Escherichia coli", "test": "Antibacterial activity against Escherichia coli KB366 expressing IMP-1 assessed as inhibition of bacterial growth at 100 ug in presence of meropenem incubated overnight by paper disk method", "format": "functional", "conditions": "read-out: IZ"}, "[29]": {"tested_on": "Escherichia coli", "test": "Antibacterial activity against Escherichia coli KB366 expressing IMP-1 assessed as inhibition of bacterial growth at 0.03 ug in absence of meropenem incubated overnight by paper disk method", "format": "functional, organism-based", "conditions": "dose 0.03 µg"}, "[30]": {"tested_on": "Pseudomonas aeruginosa", "test": "Antibacterial activity against Pseudomonas aeruginosa KB367 expressing IMP-1 assessed as inhibition of bacterial growth at 3 ug in absence of meropenem incubated overnight by paper disk method", "format": "functional, organism-based", "conditions": "dose 3.0 µg"}, "[31]": {"tested_on": "Pseudomonas aeruginosa", "test": "Antibacterial activity against Pseudomonas aeruginosa KB367 expressing IMP-1 assessed as inhibition of bacterial growth at 1 ug in presence of meropenem incubated overnight by paper disk method", "format": "functional", "conditions": "read-out: IZ"}, "[32]": {"tested_on": "Pseudomonas aeruginosa", "test": "Antibacterial activity against Pseudomonas aeruginosa KB367 expressing IMP-1 assessed as inhibition of bacterial growth at 0.03 ug in absence of meropenem incubated overnight by paper disk method", "format": "functional, organism-based", "conditions": "dose 0.03 µg"}, "[33]": {"tested_on": "Pseudomonas aeruginosa", "test": "Antibacterial activity against Pseudomonas aeruginosa KB367 expressing IMP-1 assessed as inhibition of bacterial growth at 0.01 ug in absence of meropenem incubated overnight by paper disk method", "format": "functional, organism-based", "conditions": "dose 0.01 µg"}, "[34]": {"tested_on": "Pseudomonas aeruginosa", "test": "Antibacterial activity against Pseudomonas aeruginosa KB367 expressing IMP-1 assessed as inhibition of bacterial growth at 100 ug in absence of meropenem incubated overnight by paper disk method", "format": "functional, organism-based", "conditions": "dose 100.0 µg"}, "[35]": {"tested_on": "Escherichia coli", "test": "Antibacterial activity against Escherichia coli KB366 expressing IMP-1 assessed as inhibition of bacterial growth at 30 ug in presence of meropenem incubated overnight by paper disk method", "format": "functional", "conditions": "read-out: IZ"}, "[36]": {"tested_on": "Escherichia coli", "test": "Antibacterial activity against Escherichia coli KB366 expressing IMP-1 assessed as inhibition of bacterial growth at 0.3 ug in presence of meropenem incubated overnight by paper disk method", "format": "functional", "conditions": "read-out: IZ"}, "[37]": {"tested_on": "Escherichia coli", "test": "Antibacterial activity against Escherichia coli KB366 expressing IMP-1 assessed as inhibition of bacterial growth at 0.01 ug in presence of meropenem incubated overnight by paper disk method", "format": "functional", "conditions": "dose 0.01 µg"}}, "note": "Calls of active or inactive are those of the source. The calls are words filed in the database; no cut-off is given here.", "data": [{"smiles": "CCCC/C(C(=O)[O-])=C(/C(=O)[O-])c1ccc(O)c(O)c1.[Na+].[Na+]", "values": [{"measurement": "zone of inhibition at 10 µg/disc", "setting": "[1]", "result": 14, "unit": "mm"}, {"measurement": "inhibition zone (IZ)", "setting": "[2]", "result": "inactive"}, {"measurement": "inhibition zone (IZ)", "setting": "[3]", "result": "inactive"}, {"measurement": "zone of inhibition at 30 µg/disc", "setting": "[4]", "result": 18, "unit": "mm"}, {"measurement": "inhibition zone (IZ)", "setting": "[5]", "result": "inactive"}, {"measurement": "inhibition zone (IZ)", "setting": "[6]", "result": "inactive"}, {"measurement": "inhibition zone (IZ)", "setting": "[7]", "result": "inactive"}, {"measurement": "inhibition zone (IZ)", "setting": "[8]", "result": "inactive"}, {"measurement": "zone of inhibition at 1 µg/disc", "setting": "[9]", "result": 15, "unit": "mm"}, {"measurement": "inhibition zone (IZ)", "setting": "[10]", "result": "inactive"}, {"measurement": "zone of inhibition at 100 µg/disc", "setting": "[11]", "result": 20, "unit": "mm"}, {"measurement": "inhibition zone (IZ)", "setting": "[12]", "result": "inactive"}, {"measurement": "zone of inhibition at 0.1 µg/disc", "setting": "[13]", "result": 10, "unit": "mm"}, {"measurement": "inhibition zone (IZ)", "setting": "[14]", "result": "inactive"}, {"measurement": "inhibition zone (IZ)", "setting": "[15]", "result": "inactive"}, {"measurement": "inhibition zone (IZ)", "setting": "[16]", "result": "inactive"}, {"measurement": "zone of inhibition at 3 µg/disc", "setting": "[17]", "result": 19, "unit": "mm"}, {"measurement": "zone of inhibition at 3 µg/disc", "setting": "[18]", "result": 11, "unit": "mm"}, {"measurement": "zone of inhibition at 10 µg/disc", "setting": "[19]", "result": 22, "unit": "mm"}, {"measurement": "inhibition zone (IZ)", "setting": "[20]", "result": "inactive"}, {"measurement": "zone of inhibition at 0.03 µg/disc", "setting": "[21]", "result": 9, "unit": "mm"}, {"measurement": "inhibition zone (IZ)", "setting": "[22]", "result": "inactive"}, {"measurement": "inhibition zone (IZ)", "setting": "[23]", "result": "inactive"}, {"measurement": "inhibition zone (IZ)", "setting": "[24]", "result": "inactive"}, {"measurement": "inhibition zone (IZ)", "setting": "[25]", "result": "inactive"}, {"measurement": "inhibition zone (IZ)", "setting": "[26]", "result": "inactive"}, {"measurement": "IC50", "setting": "[27]", "result": 0.56, "unit": "µg/mL"}, {"measurement": "zone of inhibition at 100 µg/disc", "setting": "[28]", "result": 31, "unit": "mm"}, {"measurement": "inhibition zone (IZ)", "setting": "[29]", "result": "inactive"}, {"measurement": "inhibition zone (IZ)", "setting": "[30]", "result": "inactive"}, {"measurement": "zone of inhibition at 1 µg/disc", "setting": "[31]", "result": 9, "unit": "mm"}, {"measurement": "inhibition zone (IZ)", "setting": "[32]", "result": "inactive"}, {"measurement": "inhibition zone (IZ)", "setting": "[33]", "result": "inactive"}, {"measurement": "inhibition zone (IZ)", "setting": "[34]", "result": "inactive"}, {"measurement": "zone of inhibition at 30 µg/disc", "setting": "[35]", "result": 27, "unit": "mm"}, {"measurement": "zone of inhibition at 0.3 µg/disc", "setting": "[36]", "result": 12, "unit": "mm"}, {"measurement": "inhibition zone (IZ)", "setting": "[37]", "result": "inactive"}]}]}
